#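 How tested: cells in 96-well plates exposed to compound for 48 hours at five concentrations. Here, GI50 denotes the concentration required for 50% inhibition of growth. The concentration for full growth arrest is given as TGI.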
# Key:
# Experiment in all cases: DTP human tumour cell line panel, 48 h
# 786-0 renal = test system: 786-0 renal
# A498 renal = test system: A498 renal
# A549 NSCLC = test system: A549 NSCLC
# ACHN renal = test system: ACHN renal
# CCRF-CEM leukemia = test system: CCRF-CEM leukemia
# COLO 205 colon = test system: COLO 205 colon
# DLD-1 colon = test system: DLD-1 colon
# DMS 273 small cell lung = test system: DMS 273 small cell lung
# EKVX NSCLC = test system: EKVX NSCLC
# HCC-2998 colon = test system: HCC-2998 colon
# HCT-116 colon = test system: HCT-116 colon
# HCT-15 colon = test system: HCT-15 colon
# HOP-62 NSCLC = test system: HOP-62 NSCLC
# HOP-92 NSCLC = test system: HOP-92 NSCLC
# HT29 colon = test system: HT29 colon
# IGROV1 ovarian = test system: IGROV1 ovarian
# K-562 leukemia = test system: K-562 leukemia
# KM12 colon = test system: KM12 colon
# KM20L2 colon = test system: KM20L2 colon
# LOX IMVI melanoma = test system: LOX IMVI melanoma
# LXFL 529 NSCLC = test system: LXFL 529 NSCLC
# M14 melanoma = test system: M14 melanoma
# MALME-3M melanoma = test system: MALME-3M melanoma
# MOLT-4 leukemia = test system: MOLT-4 leukemia
# NCI-H23 lung = test system: NCI-H23 lung
# NCI-H460 lung = test system: NCI-H460 lung
# NCI-H522 lung = test system: NCI-H522 lung
# OVCAR-3 ovarian = test system: OVCAR-3 ovarian
# OVCAR-4 ovarian = test system: OVCAR-4 ovarian
# OVCAR-5 ovarian = test system: OVCAR-5 ovarian
# OVCAR-8 ovarian = test system: OVCAR-8 ovarian
# RPMI-8226 leukemia = test system: RPMI-8226 leukemia
# SF-268 CNS = test system: SF-268 CNS
# SF-295 CNS = test system: SF-295 CNS
# SF-539 CNS = test system: SF-539 CNS
# SK-MEL-2 melanoma = test system: SK-MEL-2 melanoma
# SK-MEL-28 melanoma = test system: SK-MEL-28 melanoma
# SK-MEL-5 melanoma = test system: SK-MEL-5 melanoma
# SK-OV-3 ovarian = test system: SK-OV-3 ovarian
# SN12C renal = test system: SN12C renal
# SNB-19 CNS = test system: SNB-19 CNS
# SNB-75 CNS = test system: SNB-75 CNS
# SNB-78 CNS = test system: SNB-78 CNS
# SW-620 colon = test system: SW-620 colon
# TK-10 renal = test system: TK-10 renal
# U251 CNS = test system: U251 CNS
# UACC-257 melanoma = test system: UACC-257 melanoma
# UACC-62 melanoma = test system: UACC-62 melanoma
# UO-31 renal = test system: UO-31 renal
smiles,measurement,setting,value
N.N.N.N.N.NC(=O)[O-].[Co+3].[I-],GI50,786-0 renal,> 100 µM
same,TGI,786-0 renal,> 100 µM
same,GI50,A498 renal,> 100 µM
same,TGI,A498 renal,> 100 µM
same,GI50,A549 NSCLC,> 100 µM
same,TGI,A549 NSCLC,> 100 µM
same,GI50,ACHN renal,> 100 µM
same,TGI,ACHN renal,> 100 µM
same,GI50,CCRF-CEM leukemia,> 100 µM
same,TGI,CCRF-CEM leukemia,> 100 µM
same,GI50,COLO 205 colon,> 100 µM
same,TGI,COLO 205 colon,> 100 µM
same,GI50,DLD-1 colon,> 100 µM
same,TGI,DLD-1 colon,> 100 µM
same,GI50,DMS 273 small cell lung,> 100 µM
same,TGI,DMS 273 small cell lung,> 100 µM
same,GI50,EKVX NSCLC,> 100 µM
same,TGI,EKVX NSCLC,> 100 µM
same,GI50,HCC-2998 colon,> 100 µM
same,TGI,HCC-2998 colon,> 100 µM
same,GI50,HCT-116 colon,> 100 µM
same,TGI,HCT-116 colon,> 100 µM
same,GI50,HCT-15 colon,> 100 µM
same,TGI,HCT-15 colon,> 100 µM
same,GI50,HOP-62 NSCLC,> 100 µM
same,TGI,HOP-62 NSCLC,> 100 µM
same,GI50,HOP-92 NSCLC,> 100 µM
same,TGI,HOP-92 NSCLC,> 100 µM
same,GI50,HT29 colon,> 100 µM
same,TGI,HT29 colon,> 100 µM
same,GI50,IGROV1 ovarian,> 100 µM
same,TGI,IGROV1 ovarian,> 100 µM
same,GI50,K-562 leukemia,> 100 µM
same,TGI,K-562 leukemia,> 100 µM
same,GI50,KM12 colon,> 100 µM
same,TGI,KM12 colon,> 100 µM
same,GI50,KM20L2 colon,> 100 µM
same,TGI,KM20L2 colon,> 100 µM
same,GI50,LOX IMVI melanoma,> 100 µM
same,TGI,LOX IMVI melanoma,> 100 µM
same,GI50,LXFL 529 NSCLC,> 100 µM
same,TGI,LXFL 529 NSCLC,> 100 µM
same,GI50,M14 melanoma,> 100 µM
same,TGI,M14 melanoma,> 100 µM
same,GI50,MALME-3M melanoma,> 100 µM
same,TGI,MALME-3M melanoma,> 100 µM
same,GI50,MOLT-4 leukemia,> 100 µM
same,TGI,MOLT-4 leukemia,> 100 µM
same,GI50,NCI-H23 lung,> 100 µM
same,TGI,NCI-H23 lung,> 100 µM
same,GI50,NCI-H460 lung,> 100 µM
same,TGI,NCI-H460 lung,> 100 µM
same,GI50,NCI-H522 lung,> 100 µM
same,TGI,NCI-H522 lung,> 100 µM
same,GI50,OVCAR-3 ovarian,> 100 µM
same,TGI,OVCAR-3 ovarian,> 100 µM
same,GI50,OVCAR-4 ovarian,> 100 µM
same,TGI,OVCAR-4 ovarian,> 100 µM
same,GI50,OVCAR-5 ovarian,> 100 µM
same,TGI,OVCAR-5 ovarian,> 100 µM
same,GI50,OVCAR-8 ovarian,> 100 µM
same,TGI,OVCAR-8 ovarian,> 100 µM
same,GI50,RPMI-8226 leukemia,> 100 µM
same,TGI,RPMI-8226 leukemia,> 100 µM
same,GI50,SF-268 CNS,> 100 µM
same,TGI,SF-268 CNS,> 100 µM
same,GI50,SF-295 CNS,> 100 µM
same,TGI,SF-295 CNS,> 100 µM
same,GI50,SF-539 CNS,> 100 µM
same,TGI,SF-539 CNS,> 100 µM
same,GI50,SK-MEL-2 melanoma,> 100 µM
same,TGI,SK-MEL-2 melanoma,> 100 µM
same,GI50,SK-MEL-28 melanoma,> 100 µM
same,TGI,SK-MEL-28 melanoma,> 100 µM
same,GI50,SK-MEL-5 melanoma,> 100 µM
same,TGI,SK-MEL-5 melanoma,> 100 µM
same,GI50,SK-OV-3 ovarian,> 100 µM
same,TGI,SK-OV-3 ovarian,> 100 µM
same,GI50,SN12C renal,> 100 µM
same,TGI,SN12C renal,> 100 µM
same,GI50,SNB-19 CNS,> 100 µM
same,TGI,SNB-19 CNS,> 100 µM
same,GI50,SNB-75 CNS,18.7 µM
same,TGI,SNB-75 CNS,> 100 µM
same,GI50,SNB-78 CNS,> 100 µM
same,TGI,SNB-78 CNS,> 100 µM
same,GI50,SW-620 colon,> 100 µM
same,TGI,SW-620 colon,> 100 µM
same,GI50,TK-10 renal,> 100 µM
same,TGI,TK-10 renal,> 100 µM
same,GI50,U251 CNS,> 100 µM
same,TGI,U251 CNS,> 100 µM
same,GI50,UACC-257 melanoma,> 100 µM
same,TGI,UACC-257 melanoma,> 100 µM
same,GI50,UACC-62 melanoma,> 100 µM
same,TGI,UACC-62 melanoma,> 100 µM
same,GI50,UO-31 renal,> 100 µM
same,TGI,UO-31 renal,> 100 µM

# Source: PubChem BioAssay (NCI)
